{"source": "ChEMBL document CHEMBL4840333", "about": "“Ulleunganilines A-C, Trichostatin Analogues Bearing a Modified Side Chain from Streptomyces sp. 13F051” (J Nat Prod, 2021)", "key": {"Histone deacetylase": {"target": "Histone deacetylase", "experiment": "Inhibition of HDAC in human HeLa nuclear extract using Fluor de Lys as substrate incubated for 20 mins by fluorometric assay", "type": "subcellular, Nucleus"}, "SW480": {"tested_on": "SW480", "experiment": "Cytotoxicity against human SW480 cells assessed as reduction in cell viability incubated for 72 hrs by EZ-Cytox colorimetric assay", "type": "functional, cell-based", "settings": "for IC50: SW480, 72 h"}, "U2OS": {"tested_on": "U2OS", "experiment": "Cytotoxicity against human U2OS cells assessed as reduction in cell viability incubated for 72 hrs by EZ-Cytox colorimetric assay", "type": "functional, cell-based"}, "HeLa": {"tested_on": "HeLa", "experiment": "Cytotoxicity against human HeLa cells assessed as reduction in cell viability incubated for 72 hrs by EZ-Cytox colorimetric assay", "type": "functional, cell-based"}, "A549": {"tested_on": "A549", "experiment": "Cytotoxicity against human A549 cells assessed as reduction in cell viability incubated for 72 hrs by EZ-Cytox colorimetric assay", "type": "functional, cell-based", "settings": "for IC50: A549, 72 h"}, "MDA-MB-231": {"tested_on": "MDA-MB-231", "experiment": "Cytotoxicity against human MDA-MB-231 cells assessed as reduction in cell viability incubated for 72 hrs by EZ-Cytox colorimetric assay", "type": "functional, cell-based", "settings": "for IC50: MDA-MB-231, 72 h"}}, "note": "Activity calls are given as the source filed them. No cut-off for these calls is given here."}
{"smiles": "CC(/C=C/C(=O)N[C@@H](CCC(N)=O)C(=O)O)=C\\[C@@H](C)C(=O)c1ccc(N(C)C)cc1", "values": [{"measurement": "IC50", "setting": "Histone deacetylase", "result": "> 100", "unit": "µM"}]}
{"smiles": "CC(/C=C/C(N)=O)=C\\[C@@H](C)C(=O)c1ccc(N(C)C)cc1", "values": [{"measurement": "IC50", "setting": "Histone deacetylase", "result": "> 100", "unit": "µM"}]}
{"smiles": "CC(/C=C/C(=O)O)=C\\[C@@H](C)C(=O)c1ccc(N(C)C)cc1", "note": "[TRICHOSTATIC ACID]", "values": [{"measurement": "IC50", "setting": "Histone deacetylase", "result": 95.13, "unit": "µM"}]}
{"smiles": "CC(/C=C/C(=O)N[C@@H](CCC(=O)O)C(=O)O)=C\\[C@@H](C)C(=O)c1ccc(N(C)C)cc1", "values": [{"measurement": "IC50", "setting": "Histone deacetylase", "result": "> 100", "unit": "µM"}]}
{"smiles": "CC(/C=C/C(=O)NO[C@@H]1O[C@H](CO)[C@@H](O)[C@H](O)[C@H]1O)=C\\[C@@H](C)C(=O)c1ccc(N(C)C)cc1", "values": [{"measurement": "IC50", "setting": "SW480", "result": 72, "unit": "µM"}, {"measurement": "IC50", "setting": "U2OS", "result": 94.9, "unit": "µM"}, {"measurement": "IC50", "setting": "Histone deacetylase", "result": 23.63, "unit": "µM"}]}
{"smiles": "CC(/C=C/C(=O)NO)=C\\[C@@H](C)C(=O)c1ccc(N(C)C)cc1", "values": [{"measurement": "Activity", "setting": "HeLa", "result": "Active"}, {"measurement": "Activity", "setting": "A549", "result": "Active"}, {"measurement": "Activity", "setting": "MDA-MB-231", "result": "Active"}, {"measurement": "Activity", "setting": "SW480", "result": "Active"}, {"measurement": "Activity", "setting": "U2OS", "result": "Active"}]}
{"smiles": "C[C@H](C[C@@H](C)C(=O)c1ccc(N(C)C)cc1)C(=O)O", "values": [{"measurement": "IC50", "setting": "HeLa", "result": "> 100", "unit": "µM"}, {"measurement": "IC50", "setting": "A549", "result": "> 100", "unit": "µM"}, {"measurement": "IC50", "setting": "MDA-MB-231", "result": "> 100", "unit": "µM"}, {"measurement": "IC50", "setting": "SW480", "result": "> 100", "unit": "µM"}, {"measurement": "IC50", "setting": "U2OS", "result": "> 100", "unit": "µM"}, {"measurement": "IC50", "setting": "Histone deacetylase", "result": 39.67, "unit": "µM"}]}
{"smiles": "CNC(=O)/C=C/C(C)=C/[C@@H](C)C(=O)c1ccc(N(C)C)cc1", "values": [{"measurement": "IC50", "setting": "Histone deacetylase", "result": "> 100", "unit": "µM"}]}
{"smiles": "CNc1ccc(C(=O)[C@H](C)C[C@@H](C)C(=O)O)cc1", "values": [{"measurement": "IC50", "setting": "HeLa", "result": "> 100", "unit": "µM"}, {"measurement": "IC50", "setting": "A549", "result": "> 100", "unit": "µM"}, {"measurement": "IC50", "setting": "MDA-MB-231", "result": "> 100", "unit": "µM"}, {"measurement": "IC50", "setting": "SW480", "result": "> 100", "unit": "µM"}, {"measurement": "IC50", "setting": "U2OS", "result": "> 100", "unit": "µM"}, {"measurement": "IC50", "setting": "Histone deacetylase", "result": "> 100", "unit": "µM"}]}
{"smiles": "CC(/C=C/C(=O)Nc1ccc(C(=O)N[C@@H](CCC(N)=O)C(=O)O)cc1)=C\\[C@@H](C)C(=O)c1ccc(N(C)C)cc1", "values": [{"measurement": "IC50", "setting": "HeLa", "result": "> 100", "unit": "µM"}, {"measurement": "IC50", "setting": "A549", "result": "> 100", "unit": "µM"}, {"measurement": "IC50", "setting": "MDA-MB-231", "result": "> 100", "unit": "µM"}, {"measurement": "IC50", "setting": "SW480", "result": "> 100", "unit": "µM"}, {"measurement": "IC50", "setting": "U2OS", "result": "> 100", "unit": "µM"}, {"measurement": "IC50", "setting": "Histone deacetylase", "result": 19.96, "unit": "µM"}]}
